Values joined by “and” are separate entries in the source; they are usually repeats but may differ in a detail not shown here. Equal values may be shown once.
How the values were obtained:
[1] = system: TN metastatic or locally recurrent breast cancer; assay: randomized phase II trial, TN cohort, efficacy; type: in vivo, human
From the text: Other information about this phase II clinical trial is included in O'Shaughnessy et al., JAMA Network Open. 2021, 4(4):e214103, the entire contents of which are incorporated herein by reference.
Eligible patients were postmenopausal women aged 18 years or older with metastatic or unresectable locally recurrent breast cancer that was histologically confirmed as ER+/HER2− invasive breast cancer (any progesterone receptor status), with Ki67 greater than 15% in primary or metastatic tissue, or grade 3 TNBC, to enrich for more highly proliferative cancers that may be more dependent on AURKA. HER2− negative was defined as immunohistochemistry (IHC) status of 0, 1+, or 2+(if IHC was 2+, a negative FISH test was required with a ratio <2.0 and an average HER2 copy number <4.0 signals/cell). ER-negative and progesterone receptor (PR)-negative status was defined as ER and PR less than 1% nuclei positive by IHC. Patients may have been treated with 0 or 1 chemotherapy regimen for advanced disease and with neo/adjuvant taxane therapy at least 12 months before the development of metastatic disease. An Eastern Cooperative Group (ECOG) performance status of 0 or 1 and adequate hematologic, cardiac, renal, and liver function were required. Eligible patients were required to have measurable disease by Response Evaluation Criteria in Solid Tumors (RECIST v 1.1) criteria, or lytic or mixed blastic/lytic bone-only disease. Patients with untreated or progressing brain metastases, or those who required corticosteroids, were not eligible.
(§1) Administration of 5 μg/kg filgrastim was allowed for treatment-limiting neutropenia, and loperamide was used to treat diarrhea but was not allowed prophylactically in cycle 1.
Computed tomography (CT) of chest, abdomen, and pelvis was performed at screening. Chest and abdominal CT imaging were then performed every 8 weeks after initiation of treatment for the first 32 weeks of treatment and every 12 weeks thereafter for the duration of the treatment period, and at End of Treatment (EoT). Pelvic CT imaging was obtained at subsequent tumor assessments only if pelvic metastases were identified at screening. Bone scans were obtained on all patients at screening and then every 12 weeks in patients with bone metastases on their baseline bone scan.
Patients were stratified as ER-positive, HER2-negative cohort and TN cohort based on results of ER, progesterone receptor, and HER2 measurements on their metastatic tissue, or, if not available, on their primary breast cancer tissue.
The TN and ER-positive, HER2-negative cohorts were analyzed independently, and no change to the statistical plan was made based on the underaccrual to the TN group.
Patients' baseline demographic and disease characteristics were summarized for the intent-to-treat population, which included all patients registered on study and were described by means with SDs and medians with ranges for continuous variables and by numbers with percentages for categorical variables. PFS was defined as the time from date of registration in the study to the date of first progression of disease or the date of death. Patients whose disease had not progressed were censored at the last contact date. OS was measured from the date of registration to the date of death. PFS and OS were estimated using Kaplan-Meier methods with 95% CIs in the intent-to-treat population and compared by log-rank tests.
The protocol-defined evaluable population included all eligible patients who received at least 1 dose of study drug. CBR and ORR were examined using univariate and multivariate approaches with Fisher exact tests and the logistic regression models. The 95% CIs were estimated for CBR and ORR assuming binomial distribution. A χ^2 test was used to estimate the differences between CBRs and ORRs in the two arms.

[2] = phase II trial, dose modifications in ER+/ERBB2-negative cohort (safety population); type: in vivo, human
Description: as §1
Incidence and grades of AEs for all patients were analyzed using the safety population which included all patients (eligible and ineligible) who received at least 1 dose of study drug. Toxic effects were reported and tabulated by numbers and frequencies for all related AEs. SAS statistical software version 9.4 (SAS Institute) was used for all data analysis. Data were analyzed from March through May 2019.

[3] = TN cohort, evaluable patients (P+A n=16, P n=12)
[4] = Arm 1 (paclitaxel plus alisertib), n=66

## CC(=O)O[C@H]1C(=O)[C@@]2(C)[C@H]([C@H](OC(=O)c3ccccc3)[C@]3(O)C[C@H](OC(=O)[C@H](O)[C@@H](NC(=O)c4ccccc4)c4ccccc4)C(C)=C1C3(C)C)[C@]1(OC(C)=O)CO[C@@H]1C[C@@H]2O [Paclitaxel, (2α,4α,5β,7β,10β,13α)-4,10-Bis(acetyloxy)-13-{[(2R,3S)-3-(benzoylamino)-2-hydroxy-3-phenylpropanoyl]oxy}-1,7-dihydroxy-9-oxo-5,20-epoxytax-11-en-2-yl benzoate]
[1]; 35 patients with TN MBC, intent-to-treat, listed as paclitaxel alone
  median (IQR) PFS: 5.7 (2.9-8.2) months and 5.7 months
[1]; [3]
  Best Overall Response: CR: 0%
  Best Overall Response: PD: 2 (16.7) %
  Best Overall Response: PR: 5 (41.7) %
  Best Overall Response: SD: 5 (41.7) %
  CBR (CR + PR + SD ≥ 6 months): 7 (58.3) %
  ORR (CR + PR): 5 (41.7) %
[1]; median follow-up 13.7 months
  median (IQR) OS: 12.7 (6.8-23.5) months
[2]; [4]
  Patients with both dose delay and reduction: (16.7) %
  Patients with dose delay alone: (63.6) %
  Patients with dose discontinuation: (16.7) %
  Patients with dose increased: (3.0) %
  Patients with dose reduction alone: (1.5) %
[2]; Arm 1 (paclitaxel plus alisertib), n=66, listed as paclitaxel
  Patients with dose delay alone: 63.6%
[2]; Arm 2 (paclitaxel alone), n=70
  Patients with both dose delay and reduction: (31.4) %
  Patients with dose delay alone: (14.3) %
  Patients with dose discontinuation: (11.4) %
  Patients with dose increased: 0%
  Patients with dose reduction alone: (2.9) %
[2]; Arm 2 (paclitaxel alone), n=70, listed as paclitaxel alone
  Patients with both dose delay and reduction: 31.4%

Reference: patent publication US20250268909A1, “Combination Therapy” (US Oncology Corporate, Inc., priority 2022, published 2025)
